Tests used:
[1] = tested on: Plasmodium falciparum; test: NOVARTIS: Inhibition of Plasmodium falciparum W2 (drug-resistant) proliferation in erythrocyte-based infection assay; type: functional, organism-based; conditions: Plasmodium falciparum, W2; read-out: EC50
[2] = tested on: Plasmodium falciparum; test: NOVARTIS: Inhibition of Plasmodium falciparum 3D7 (drug-susceptible) proliferation in erythrocyte-based infection assay; type: functional, organism-based; conditions: Plasmodium falciparum, 3D7
[3] = NOVARTIS: Cytotoxicity against human hepatocellular carcinoma cell line (Huh7); type: toxicity, cell-based, Huh-7; conditions: Huh7 cells (hepatocellular carcinoma cell line)

| Structure (SMILES) | EC50 [1] [nM] | EC50 [2] [nM] | CC50 [3] [nM] |
| --- | --- | --- | --- |
| CCOC(=O)c1nc2nc(C)cc(O)n2n1 | > 940 | > 739 | > 10000 |
| CO[C@H]1[C@@H](C)[C@@H]([C@H](C)C2O[C@@]3(CC[C@@](C)([C@H]4CC[C@@](C)([C@@H]5O[C@@H]([C@H]6O[C@](C)(O)[C@H](C)C[C@@H]6C)C[C@@H]5C)O4)O3)C[C@H](O)[C@@H]2C)O[C@@](O)([C@H](C)C(=O)O)[C@H]1C (stereo partly specified) | 938 | 1140 | > 10000 |
| Cc1cccc(-n2c(-c3ccccc3)nc3ccc(-c4ccc5nc(-c6ccccc6)n(-c6cccc(C)c6)c(=O)c5c4)cc3c2=O)c1 | > 939 | > 1200 | > 10000 |
| Cc1cc2nc(NC(=N)N)nc(C)c2cc1C | > 9300 | 2660 | > 100000 |
| CCOC(=O)C1=C(C)N=c2sc(=Cc3cccc(OCc4cccc5ccccc45)c3)c(=O)n2C1c1ccc(OC)cc1OC (stereo unspecified) | > 9270 | > 12500 | > 100000 |
| CCN1CCN(CC(O)COc2ccc(OC)cc2)CC1 (stereo unspecified) | > 9190 | 2810 | > 100000 |
| Oc1ccc(Nc2nc(N3CCCC3)c3ccccc3n2)cc1 | 926 | 584 | > 10000 |
| Cc1cc(Nc2ccc(C)c(Cl)c2)n2ncnc2n1 | > 927 | 1400 | > 10000 |
| CCOC(=O)C1=C(C)N/C(=C\c2cc(C)n(-c3cccc(Br)c3)c2C)C1=O | > 926 | > 1250 | > 10000 |
| COc1cc(Br)c(/C=C2\Sc3ccccc3C2=O)cc1OC | > 925 | > 1250 | > 10000 |
| O=C(CCl)Nc1ccc(S(=O)(=O)OCC(F)(F)C(F)F)cc1 | 1580 | 1730 | 17100 |
| Cc1c(C#N)c2ccccc2n1CC(=O)Nc1ccc(Br)cc1 | 1030 | 771 | 11100 |
| Cc1ccc([N+](=O)[O-])cc1-c1ccc(/C=C2/SC(=S)N(CC(=O)O)C2=O)o1 | > 940 | > 1250 | > 10000 |
| COc1cccc(-c2ccc(O)c(CNCc3ccccc3OC)c2)n1 | 939 | 1090 | > 10000 |
| COc1ccc(C(=O)Nc2ccc(-c3nc4ccc(NC(=O)c5ccc(OC)cc5)cc4[nH]3)cc2)cc1 | 810 | 800 | 8780 |
| CCOC(=O)C1=C(N)n2c(sc(=Cc3cccnc3)c2=O)=C(C(=O)OC)C1c1cccnc1 (stereo unspecified) | > 922 | > 1250 | > 10000 |
| COc1cc(/C=C(\C#N)c2nc3ccccc3[nH]2)ccc1OCc1ccccc1F | 919 | > 1190 | > 10000 |
| C=CCOc1cccc(/C=C2/NC(C)=C(C(=O)OCC)C2=O)c1 | > 933 | > 1040 | > 10000 |
| CC1CCC(Nc2ccnc3cc(Cl)ccc23)CC1 (stereo unspecified) | 933 | 843 | > 10000 |
| O=C(NCCCN1CCCC1=O)c1cccn2c(=O)c3ccc(Cl)cc3nc12 | > 918 | > 1350 | > 10000 |
| C=CCNC(=O)c1cc(OCc2ccccc2)c(OCc2ccccc2)c(OCc2ccccc2)c1 | 9180 | 10800 | > 100000 |
| CCOc1ccc(C=NNC(=O)CCn2nnc3ccccc32)cc1 | > 1250 | > 1040 | > 13600 |
| CCOc1ccc(C(=O)Nc2cc(OC)ccc2OC)cc1 | > 917 | > 1250 | > 10000 |

| Structure (SMILES) | EC50 [1] [nM] | EC50 [2] [nM] | CC50 [3] [nM] |
| --- | --- | --- | --- |
| CCCCCN(C(=O)Nc1ccccc1OC)C(C)c1nc2ccccc2c(=O)n1-c1ccccc1OCC (stereo unspecified) | 917 | 843 | > 10000 |
| CCOc1ccc(C2=NC3(CCN(C(C)C)CC3)NC(c3cc(Cl)ccc3O)C2)cc1 (stereo unspecified) | 5480 | 7180 | 59900 |
| Fc1ccc(-n2cc(-c3ccccc3)[n+]3c2SCC3)cc1 | > 911 | > 965 | > 10000 |
| CCCCNCCN1CCN(c2cc(OC)cc(OC)c2)C[C@@H]1Cc1ccccc1 | 938 | > 1250 | 10300 |
| O=C(CN1CCCC1C(c1ccccc1)c1ccccc1)N1CCSCC1 (stereo unspecified) | > 1080 | > 1250 | 12000 |
| CCOC(=O)c1c(N)n(-c2ccc(NC(=O)c3cccc([N+](=O)[O-])c3)cc2)c2nc3ccccc3nc12 | 1740 | 320 | 19400 |
| COc1cccc(NC(=O)c2ccc3oc(=O)c(S(=O)(=O)c4ccccc4)cc3c2)c1 | > 898 | > 1250 | > 10000 |
| COc1cc(NC(C)CCCN(Cc2ccccc2OC)S(=O)(=O)c2ccc(Br)cc2)c2ncccc2c1 (stereo unspecified) | 427 | 945 | 4580 |
| N#Cc1c(N)nc2sc(C(=O)c3ccc(F)cc3)c(N)c2c1-c1ccccc1 | > 915 | > 1250 | > 10000 |
| CC(=O)c1ccc(OCCSc2nc3c(N)ncnc3[nH]2)cc1 | > 9150 | > 11200 | > 100000 |
| Cc1nc2c(-c3ccccc3)c(C)nn2c(C)c1CC(=O)NCc1ccccn1 | 9140 | > 12500 | > 100000 |
| CCOc1ccc(NC(=O)CSc2nc3cc(OCC)ccc3[nH]2)cc1 | > 1250 | 900 | > 13800 |
| Cc1cc(C)n(N=Cc2cccc(Cl)c2)c(=O)c1C#N | 9060 | > 12500 | > 100000 |
| Cc1c(C(=O)N2CCN(c3cccc(Cl)c3)CC2)sc2ncnc(N(C)c3ccccc3)c12 | > 906 | > 723 | > 10000 |
| CCOc1ccccc1C1NC(=O)NC(C)=C1C(=O)OCC(F)(F)C(F)(F)F (stereo unspecified) | > 913 | > 1250 | > 10000 |
| Cc1ccc(C=Cc2ccc3ccccc3[n+]2C)cc1 | 1480 | 59.4 | 16300 |
| Cc1cccc(NC(=O)/C(C#N)=C/c2ccc(C)o2)c1 | > 934 | > 1250 | > 10000 |
| CCCOc1ncnc2c1sc1nc3c(cc12)COC(C)(C)C3 | > 936 | > 967 | > 10000 |
| CCCCN(C(=O)Nc1ccc(OCC)cc1)C(C)c1nc2ccccc2c(=O)n1-c1ccc(F)c(Cl)c1 (stereo unspecified) | 935 | 1010 | > 10000 |
| Cn1c(=O)c2c(ncn2CC(O)CN=C2CCCCN2)n(C)c1=O (stereo unspecified) | > 933 | > 1250 | > 10000 |
| COc1ccc(NS(=O)(=O)c2cccc(C(=O)Nc3ccccc3[N+](=O)[O-])c2)cc1 | 4130 | > 12500 | 44400 |
| N#C/C(=C\n1cc(Cc2ccc(Cl)cc2Cl)c2ccccc21)c1nn(CCO)c(N)c1C#N | 929 | 913 | > 10000 |
| O=C1c2ccccc2C(=O)C12C(c1ccc(Br)cc1)N(c1ccccc1)C1(C(=O)c3ccccc3C1=O)C2c1ccc(Br)cc1 (stereo unspecified) | > 914 | 510 | > 10000 |

| Structure (SMILES) | EC50 [1] [nM] | EC50 [2] [nM] | CC50 [3] [nM] |
| --- | --- | --- | --- |
| Nc1cc(OC(=O)c2ccccc2)nn1S(=O)(=O)c1ccc(Cl)cc1 | 923 | > 1250 | > 10000 |
| CCN(CC)CCCN(Cc1cc2ccc(OC)cc2[nH]c1=O)C(=S)NCc1ccccc1 | 2410 | 3910 | 25800 |
| CC[n+]1c(/C=C2\C=C(C)CC(C)C2)sc2ccccc21 (stereo unspecified) | > 913 | > 1140 | > 10000 |
| O=C(C1CCC1)N1CCN(c2ccccn2)CC1 | > 918 | > 1250 | > 10000 |
| COc1ccc(/C=C2/SC(Nc3ccc(F)cc3)=NC2=O)c(OC)c1 | 916 | 1060 | > 10000 |
| Cc1nc(N2CCC(C)CC2)c2c(C)c(C(=O)Nc3ccc(F)cc3)sc2n1 | > 912 | 792 | > 10000 |
| CC(C)=CCC/C(C)=C/CCC(C)NCCN1CCNCC1 (stereo unspecified) | 911 | > 1100 | > 10000 |
| CC[n+]1c(/C=C/C=C2\N(C)c3ccccc3C2(C)C)n(Cc2ccccc2)c2ccccc21 | 219 | 355 | 2420 |
| O=C(Nc1ccccc1Cl)C1CCCN1C(=O)OCc1ccccc1 (stereo unspecified) | > 929 | > 1250 | > 10000 |
| O=[N+]([O-])c1ccc(NN=Cc2cccs2)c(S(=O)(=O)N2CCCCCC2)c1 | > 899 | > 1250 | > 10000 |
| CCn1c(SCCCCNC(=O)c2cc([N+](=O)[O-])cc([N+](=O)[O-])c2)nc(-c2ccccc2)c1-c1ccccc1 | 612 | 724 | 6520 |
| Fc1ccc(CSc2ccc3nnc(-c4cccnc4)n3n2)cc1 | > 937 | > 1250 | > 10000 |
| Cc1ccc2c(c1)C1CN(C)CCC1N2C(=O)c1cc2ccccc2o1 (stereo unspecified) | > 922 | > 1040 | > 10000 |
| CCn1c(SCCNC(=O)CC(C)C)nc(-c2ccccc2)c1-c1ccccc1 | > 922 | > 1250 | > 9920 |
| CSc1oc(-c2ccccc2)nc1C(N)=O | > 925 | > 1200 | > 10000 |
| Cc1ccccc1CNC(=O)c1oc2c(c1C)-c1[nH]ncc1CC2 | > 914 | > 1250 | > 10000 |
| COc1ccc(C2=C(c3ccc(OC)cc3)C3(c4ccccc4)C(=O)C2(c2ccccc2)C2C(=O)N(c4ccc(C)c(Br)c4)C(=O)C23)cc1 (stereo unspecified) | 901 | 734 | > 10000 |
| O=C(Nc1ccc(Nc2cc([N+](=O)[O-])ccc2O)c2c1C(=O)c1ccccc1C2=O)c1ccccc1 | > 901 | > 1250 | > 10000 |
| O=C(COc1cccc(Cl)c1)Nc1nccs1 | > 9290 | > 12500 | > 100000 |
| CN(c1ccc(Cl)cc1)S(=O)(=O)c1ccc2[nH]cc(C(=O)NCCC3=CCCCC3)c(=O)c2c1 | > 911 | > 1250 | > 10000 |
| CC(C)(C)CC(C)(C)c1ccc(OCC(=O)NN=C2C(=O)Nc3ccccc32)c([N+](=O)[O-])c1 | 927 | > 1000 | > 10000 |

Reference: ChEMBL document CHEMBL1156829 (Proc Natl Acad Sci U S A, 2008)
